For 13 compounds, inhibition results are on record in patent US20020019527A1 (priority 2000, published 2002).

A word on the inhibition: it is the change of the read-out against control, counted positive when it falls. A higher inhibition goes with a response far below the control.

Counter-ions that a name gives are not always drawn.

T1 sequence (P49355 whole entry, one chain of several): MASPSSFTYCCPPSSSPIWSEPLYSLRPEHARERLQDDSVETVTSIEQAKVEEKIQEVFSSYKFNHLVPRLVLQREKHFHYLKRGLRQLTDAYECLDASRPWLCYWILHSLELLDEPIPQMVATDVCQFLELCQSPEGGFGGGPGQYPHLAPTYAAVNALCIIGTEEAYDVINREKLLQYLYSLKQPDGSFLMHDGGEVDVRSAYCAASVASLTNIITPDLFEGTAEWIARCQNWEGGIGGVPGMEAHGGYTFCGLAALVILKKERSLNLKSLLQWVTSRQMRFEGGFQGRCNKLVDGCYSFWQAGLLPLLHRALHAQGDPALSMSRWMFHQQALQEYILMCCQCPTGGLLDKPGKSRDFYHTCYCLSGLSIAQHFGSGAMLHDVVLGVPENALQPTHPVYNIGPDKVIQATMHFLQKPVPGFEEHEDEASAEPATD

The assay addresses T1, Farnesyltransferase (FTase) (Bos taurus, UniProt P29702+P49355).
T1 construct: precipitation from a beef brain homogenate; from tissue; host or cells: bovine brain
Kind of assay: Farnesyltransferase inhibition (scintillation proximity assay, [3H]-FPP / biotin-K-ras peptide). It counts as biochemical, bovine. To be noted: compound at 10^−6 M; bovine FTase, 37° C., 30 minutes. As for the experimental part:
Farnesyltransferase (FTase) or geranylgeranyltransferase I (GGTase I) fractions were isolated from bovine brains and purified by a series of methods which separate FTase from GGTase I and GGTase I from GGTase II. The methods involved a partial purification of all three enzymes by precipitation from a beef brain homogenate with 30% to 50% saturated […] followed by chromatography on DEAE Sepharose. […] The catalytic purity of each enzyme was assayed separately with substrate acceptor proteins specific for that enzyme. After quickly freezing in liquid nitrogen, the various prenyl transferases were stored at −80° C.
The quenched reactions stood for 1 hour before analysis in a Packard TopCount scintillation counter. Purified compounds were dissolved in 100% ethanol and diluted 10-fold into the assay.
In general terms: In a scintillation proximity assay essentially only radioactivity close to the scintillant gives light.
`Cn1cncc1CN(Cc1ccc(OC(F)(F)F)cc1)Cc1ccc(C#N)c(-c2cccc3ccccc23)c1` [Example 41, 4-((((1-methyl-1H-imidazol-5-yl)methyl)(4-(trifluoromethoxy)benzyl)amino)methyl)-2-(1-naphthyl)benzonitrile dihydrochloride] registered an inhibition at 1 µM of 100%.

For `Cn1cncc1C(NCc1ccc(Cl)cc1)c1ccc(C#N)c(-c2cccc3ccccc23)c1` (stereo not shown) [Example 42, 4-(((4-chlorobenzyl)amino)(1-methyl-1H-imidazol-5-yl)methyl)-2-(1-naphthyl)benzonitrile], the inhibition at 1 µM was found to be 100%.

The compound `Cn1cncc1C(OCc1ccc(C#N)cc1)c1ccc(C#N)c(-c2cccc3ncccc23)c1` (stereo not shown) [Example 43, 4-(((4-cyanobenzyl)oxy)(1-methyl-1H-imidazol-5-yl)methyl)-2-(5-quinolinyl)benzonitrile dihydrochloride] came in with an inhibition at 1 µM of 100%.

As for `Cn1cncc1C(OCc1ccc(C#N)cc1)c1ccc(C#N)c(-c2cccc3cnccc23)c1` (stereo not shown) [Example 44, 4-(((4-cyanobenzyl)oxy)(1-methyl-1H-imidazol-5-yl)methyl)-2-(5-isoquinolinyl)benzonitrile], the inhibition at 1 µM was 100%.

`N#Cc1ccc(CN(Cc2ccc(C#N)c(-c3cccc4ccccc34)c2)Cc2cnc[nH]2)cc1` [Example 45, 4-(((4-cyanobenzyl)(1H-imidazol-5-ylmethyl)amino)methyl)-2-(1-naphthyl)benzonitrile dihydrochloride] registered an inhibition at 1 µM of 100%.

Regarding `N#Cc1ccc(COC(c2ccc(C#N)c(-c3cccc4ccccc34)c2)c2cnc[nH]2)cc1` (stereo not shown) [Example 46, 4-(((4-cyanobenzyl)oxy)(1H-imidazol-5-yl)methyl)-2-(1-naphthyl)benzonitrile hydrochloride], 1 µM produced 100% inhibition.

Turning to `Cn1cncc1C(NCc1ccc(Cl)c(Cl)c1)c1ccc(C#N)c(-c2cccc3ccccc23)c1` (stereo not shown) [Example 47, 4-(((3,4-dichlorobenzyl)amino)(1-methyl-1H-imidazol-5-yl)methyl)-2-(1-naphthyl)benzonitrile], the inhibition at 1 µM was 100%.

For `CNC(=O)c1ccc(CNC(c2ccc(C#N)c(-c3cccc4ccccc34)c2)c2cncn2C)cc1` (stereo not shown) [Example 48, 4-((((4-cyano-3-(1-naphthyl)phenyl)(1-methyl-1H-imidazol-5-yl)methyl)amino)methyl)-N-methylbenzamide dihydrochloride], the inhibition at 1 µM worked out at 100%.

Consider `N#Cc1ccc(COC(c2ccc(C#N)c(-c3cccc4ccccc34)c2)c2cn(C(c3ccccc3)(c3ccccc3)c3ccccc3)cn2)cc1` (stereo not shown) [Example 49, 4-(((4-cyanobenzyl)oxy)(1-trityl-1H-imidazol-4-yl)methyl)-2-(1-naphthyl)benzonitrile], for which at 1 µM the inhibition was 62%.

Compound `CCOC(=O)N1CCC(NC(c2ccc(C#N)c(-c3cccc4ccccc34)c2)c2cncn2C)CC1` (stereo not shown) [Example 50, ethyl 4-(((4-cyano-3-(1-naphthyl)phenyl)(1-methyl-1H-imidazol-5-yl)methyl)amino)-1-piperidinecarboxylate dihydrochloride] showed an inhibition at 1 µM of 100%.

For `Cn1cncc1C(NCc1ccc(C#N)cn1)c1ccc(C#N)c(-c2cccc3ccccc23)c1` (stereo not shown) [Example 51, 6-((((4-cyano-3-(1-naphthyl)phenyl)(1-methyl-1H-imidazol-5-yl)methyl)amino)methyl)nicotinonitrile trihydrochloride], the inhibition at 1 µM was 100%.

`COC(=O)c1ccc(CNC(c2ccc(C#N)c(-c3cccc4ccccc34)c2)c2cncn2C)nc1` (stereo not shown) [Example 52, methyl 6-((((4-cyano-3-(1-naphthyl)phenyl)(1-methyl-1H-imidazol-5-yl)methyl)amino)methyl)nicotinate trihydrochloride] had an inhibition at 1 µM of 100%.

For `CC(=O)Nc1ccc(CNC(c2ccc(C#N)c(-c3cccc4ccccc34)c2)c2cncn2C)cc1` (stereo not shown) [Example 53, N-(4-((((4-cyano-3-(1-naphthyl)phenyl)(1-methyl-1H-imidazol-5-yl)methyl)amino)methyl)phenyl)acetamide dihydrochloride], at 1 µM the inhibition was 100%.
